Data set [1] has as its target Nitric oxide synthase, inducible (Homo sapiens, UniProt P35228). The data set can be described thus: Inhibition of human iNOS assessed as inhibition of [3H]L-arginine to [3H]L-citrulline conversion by scintillation counting.
Data set [2] deals with Nitric oxide synthase 1 (Homo sapiens, UniProt P29475). Kind of data set: Inhibition of human nNOS assessed as inhibition of [3H]L-arginine to [3H]L-citrulline conversion by scintillation counting.
Data set [3] addresses T1, Nitric oxide synthase 3 (Homo sapiens, UniProt P29474).
T1 sequence (P29474 whole entry): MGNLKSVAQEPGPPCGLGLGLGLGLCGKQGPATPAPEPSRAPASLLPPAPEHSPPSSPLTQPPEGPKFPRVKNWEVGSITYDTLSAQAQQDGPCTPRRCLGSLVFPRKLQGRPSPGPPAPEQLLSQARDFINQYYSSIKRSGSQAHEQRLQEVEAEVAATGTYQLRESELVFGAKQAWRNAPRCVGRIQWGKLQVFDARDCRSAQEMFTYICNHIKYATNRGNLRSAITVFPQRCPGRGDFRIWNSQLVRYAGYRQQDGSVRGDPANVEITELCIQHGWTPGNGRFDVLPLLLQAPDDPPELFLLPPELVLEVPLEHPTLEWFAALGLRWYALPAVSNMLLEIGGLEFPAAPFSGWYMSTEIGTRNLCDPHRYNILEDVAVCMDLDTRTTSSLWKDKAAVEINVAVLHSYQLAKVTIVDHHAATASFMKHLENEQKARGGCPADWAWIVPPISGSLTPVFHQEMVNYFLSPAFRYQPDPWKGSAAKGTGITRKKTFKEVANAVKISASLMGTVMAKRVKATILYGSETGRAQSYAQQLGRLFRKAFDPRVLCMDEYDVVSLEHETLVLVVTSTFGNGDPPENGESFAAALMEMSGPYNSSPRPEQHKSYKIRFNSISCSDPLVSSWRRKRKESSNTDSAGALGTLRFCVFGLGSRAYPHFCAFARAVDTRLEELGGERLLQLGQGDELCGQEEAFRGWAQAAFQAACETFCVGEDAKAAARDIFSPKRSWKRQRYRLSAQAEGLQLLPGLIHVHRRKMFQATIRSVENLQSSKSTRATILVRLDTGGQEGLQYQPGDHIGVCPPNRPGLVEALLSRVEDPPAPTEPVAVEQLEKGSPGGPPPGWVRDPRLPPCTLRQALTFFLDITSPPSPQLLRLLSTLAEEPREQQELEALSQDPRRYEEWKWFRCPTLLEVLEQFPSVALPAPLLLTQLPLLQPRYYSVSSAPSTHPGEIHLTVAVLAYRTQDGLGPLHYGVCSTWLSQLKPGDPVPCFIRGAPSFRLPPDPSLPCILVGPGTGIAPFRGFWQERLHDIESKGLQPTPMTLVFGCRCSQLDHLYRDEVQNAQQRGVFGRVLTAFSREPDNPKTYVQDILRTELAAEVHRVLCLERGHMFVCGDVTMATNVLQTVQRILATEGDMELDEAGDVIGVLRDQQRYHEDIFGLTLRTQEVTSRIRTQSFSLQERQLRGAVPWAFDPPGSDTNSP
The data set can be described thus: Inhibition of human eNOS assessed as inhibition of [3H]L-arginine to [3H]L-citrulline conversion by scintillation counting.

Data set [4] is described as follows: Inhibition of CYP. Format: ADME.
Data set [5] concerns the target T2, Nitric oxide synthase, inducible (Mus musculus) (UniProt P29477).
T2 sequence (whole entry): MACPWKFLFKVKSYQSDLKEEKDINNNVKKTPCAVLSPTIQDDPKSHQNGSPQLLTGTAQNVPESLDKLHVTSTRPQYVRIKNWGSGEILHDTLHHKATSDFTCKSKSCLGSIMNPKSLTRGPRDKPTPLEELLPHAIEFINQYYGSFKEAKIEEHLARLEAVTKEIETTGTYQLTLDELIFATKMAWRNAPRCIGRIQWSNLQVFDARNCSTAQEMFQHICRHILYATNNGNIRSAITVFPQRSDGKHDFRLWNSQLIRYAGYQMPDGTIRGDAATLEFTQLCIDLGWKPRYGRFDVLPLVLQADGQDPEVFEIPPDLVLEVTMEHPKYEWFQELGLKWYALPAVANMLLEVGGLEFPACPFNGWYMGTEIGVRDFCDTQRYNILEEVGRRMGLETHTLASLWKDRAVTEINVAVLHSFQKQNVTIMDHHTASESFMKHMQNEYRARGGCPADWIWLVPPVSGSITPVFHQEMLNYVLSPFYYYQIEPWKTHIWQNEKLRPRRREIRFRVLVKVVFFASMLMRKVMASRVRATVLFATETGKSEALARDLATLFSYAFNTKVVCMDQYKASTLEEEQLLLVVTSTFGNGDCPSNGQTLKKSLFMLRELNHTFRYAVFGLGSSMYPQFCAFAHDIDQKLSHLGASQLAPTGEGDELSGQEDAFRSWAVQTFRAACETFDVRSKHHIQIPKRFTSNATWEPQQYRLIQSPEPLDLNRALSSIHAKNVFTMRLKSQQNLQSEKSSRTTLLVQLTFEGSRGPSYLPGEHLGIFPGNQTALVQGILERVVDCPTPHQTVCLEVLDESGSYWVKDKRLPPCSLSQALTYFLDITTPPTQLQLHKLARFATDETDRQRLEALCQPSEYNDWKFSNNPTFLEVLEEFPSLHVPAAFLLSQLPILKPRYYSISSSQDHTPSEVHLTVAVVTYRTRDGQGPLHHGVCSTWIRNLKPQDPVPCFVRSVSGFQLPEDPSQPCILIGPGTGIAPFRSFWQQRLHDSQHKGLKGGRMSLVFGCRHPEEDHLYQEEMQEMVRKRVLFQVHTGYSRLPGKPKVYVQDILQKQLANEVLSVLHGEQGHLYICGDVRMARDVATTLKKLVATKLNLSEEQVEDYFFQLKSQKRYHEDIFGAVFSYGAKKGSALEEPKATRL
The data set can be described thus: Binding affinity to mouse iNOSox L-arginine binding site by X-ray crystallography.

A short description of data set [6]: Clearance in rat. Format: ADME, organism-based. Conditions: in vivo.
Data set [7] in a line: Cmax in rat. Conditions: in vivo. Format: ADME, organism-based.
The target in data set [8] is Cytochrome P450 2C9 (Homo sapiens, UniProt P11712). Kind of data set: Inhibition of CYP2C9. Format: ADME.
Chain of Cytochrome P450 2C9 (P11712 whole entry): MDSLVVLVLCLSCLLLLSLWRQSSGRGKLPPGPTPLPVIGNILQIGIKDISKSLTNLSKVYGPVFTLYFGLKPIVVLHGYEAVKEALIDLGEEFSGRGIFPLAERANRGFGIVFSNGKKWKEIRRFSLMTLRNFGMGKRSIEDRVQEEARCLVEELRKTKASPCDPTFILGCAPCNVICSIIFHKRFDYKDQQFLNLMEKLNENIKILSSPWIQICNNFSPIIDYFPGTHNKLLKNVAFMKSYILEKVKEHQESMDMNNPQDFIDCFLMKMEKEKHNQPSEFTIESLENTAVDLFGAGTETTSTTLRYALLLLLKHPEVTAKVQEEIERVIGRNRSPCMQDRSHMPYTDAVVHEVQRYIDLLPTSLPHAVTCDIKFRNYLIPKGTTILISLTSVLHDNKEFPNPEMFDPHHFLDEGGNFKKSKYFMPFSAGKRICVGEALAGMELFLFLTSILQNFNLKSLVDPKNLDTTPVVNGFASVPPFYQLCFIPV
Data set [9] is described as follows: Absolute oral bioavailability in rat. The following applies: in vivo. The format is ADME, organism-based.

Active and inactive are the calls of the source. The calls are words filed in the database; no cut-off is given here.

Chain of Nitric oxide synthase 1 (P29475 whole entry): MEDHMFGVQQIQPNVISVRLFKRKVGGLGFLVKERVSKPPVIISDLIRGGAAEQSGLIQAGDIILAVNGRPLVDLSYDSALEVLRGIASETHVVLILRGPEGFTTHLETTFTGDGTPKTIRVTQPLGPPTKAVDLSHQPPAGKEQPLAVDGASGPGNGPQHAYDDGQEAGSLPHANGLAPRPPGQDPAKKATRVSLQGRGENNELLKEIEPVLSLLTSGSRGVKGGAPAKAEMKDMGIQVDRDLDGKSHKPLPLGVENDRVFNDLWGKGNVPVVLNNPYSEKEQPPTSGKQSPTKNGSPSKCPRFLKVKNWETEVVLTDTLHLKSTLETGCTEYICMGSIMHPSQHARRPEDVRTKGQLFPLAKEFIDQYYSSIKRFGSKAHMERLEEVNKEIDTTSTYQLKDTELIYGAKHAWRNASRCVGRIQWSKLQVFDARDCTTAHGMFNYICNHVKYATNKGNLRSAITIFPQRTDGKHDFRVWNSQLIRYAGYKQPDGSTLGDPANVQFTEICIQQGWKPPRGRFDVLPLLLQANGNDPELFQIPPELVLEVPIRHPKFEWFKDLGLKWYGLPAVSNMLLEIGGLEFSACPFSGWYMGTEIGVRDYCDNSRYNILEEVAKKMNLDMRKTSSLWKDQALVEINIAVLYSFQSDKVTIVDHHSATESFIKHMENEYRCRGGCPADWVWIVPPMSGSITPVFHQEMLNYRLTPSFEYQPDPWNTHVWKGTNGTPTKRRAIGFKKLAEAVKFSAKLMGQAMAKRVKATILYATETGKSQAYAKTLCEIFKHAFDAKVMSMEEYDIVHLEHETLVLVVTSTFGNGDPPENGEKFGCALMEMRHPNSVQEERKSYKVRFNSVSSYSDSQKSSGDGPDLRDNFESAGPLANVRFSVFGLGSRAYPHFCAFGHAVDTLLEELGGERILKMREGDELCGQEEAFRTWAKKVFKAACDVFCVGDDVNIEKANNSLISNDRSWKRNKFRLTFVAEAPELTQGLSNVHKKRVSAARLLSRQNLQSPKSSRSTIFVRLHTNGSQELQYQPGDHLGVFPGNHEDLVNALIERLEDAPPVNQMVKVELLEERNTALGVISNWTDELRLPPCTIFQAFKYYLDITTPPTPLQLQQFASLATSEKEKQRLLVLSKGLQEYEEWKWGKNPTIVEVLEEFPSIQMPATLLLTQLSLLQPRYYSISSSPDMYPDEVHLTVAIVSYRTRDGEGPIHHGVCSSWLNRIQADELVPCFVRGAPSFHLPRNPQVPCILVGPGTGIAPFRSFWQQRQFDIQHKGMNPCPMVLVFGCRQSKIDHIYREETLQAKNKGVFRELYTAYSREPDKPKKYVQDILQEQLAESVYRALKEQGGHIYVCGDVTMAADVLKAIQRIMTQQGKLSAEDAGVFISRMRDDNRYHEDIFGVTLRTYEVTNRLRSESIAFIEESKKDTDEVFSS
Chain of Nitric oxide synthase, inducible (P35228 whole entry): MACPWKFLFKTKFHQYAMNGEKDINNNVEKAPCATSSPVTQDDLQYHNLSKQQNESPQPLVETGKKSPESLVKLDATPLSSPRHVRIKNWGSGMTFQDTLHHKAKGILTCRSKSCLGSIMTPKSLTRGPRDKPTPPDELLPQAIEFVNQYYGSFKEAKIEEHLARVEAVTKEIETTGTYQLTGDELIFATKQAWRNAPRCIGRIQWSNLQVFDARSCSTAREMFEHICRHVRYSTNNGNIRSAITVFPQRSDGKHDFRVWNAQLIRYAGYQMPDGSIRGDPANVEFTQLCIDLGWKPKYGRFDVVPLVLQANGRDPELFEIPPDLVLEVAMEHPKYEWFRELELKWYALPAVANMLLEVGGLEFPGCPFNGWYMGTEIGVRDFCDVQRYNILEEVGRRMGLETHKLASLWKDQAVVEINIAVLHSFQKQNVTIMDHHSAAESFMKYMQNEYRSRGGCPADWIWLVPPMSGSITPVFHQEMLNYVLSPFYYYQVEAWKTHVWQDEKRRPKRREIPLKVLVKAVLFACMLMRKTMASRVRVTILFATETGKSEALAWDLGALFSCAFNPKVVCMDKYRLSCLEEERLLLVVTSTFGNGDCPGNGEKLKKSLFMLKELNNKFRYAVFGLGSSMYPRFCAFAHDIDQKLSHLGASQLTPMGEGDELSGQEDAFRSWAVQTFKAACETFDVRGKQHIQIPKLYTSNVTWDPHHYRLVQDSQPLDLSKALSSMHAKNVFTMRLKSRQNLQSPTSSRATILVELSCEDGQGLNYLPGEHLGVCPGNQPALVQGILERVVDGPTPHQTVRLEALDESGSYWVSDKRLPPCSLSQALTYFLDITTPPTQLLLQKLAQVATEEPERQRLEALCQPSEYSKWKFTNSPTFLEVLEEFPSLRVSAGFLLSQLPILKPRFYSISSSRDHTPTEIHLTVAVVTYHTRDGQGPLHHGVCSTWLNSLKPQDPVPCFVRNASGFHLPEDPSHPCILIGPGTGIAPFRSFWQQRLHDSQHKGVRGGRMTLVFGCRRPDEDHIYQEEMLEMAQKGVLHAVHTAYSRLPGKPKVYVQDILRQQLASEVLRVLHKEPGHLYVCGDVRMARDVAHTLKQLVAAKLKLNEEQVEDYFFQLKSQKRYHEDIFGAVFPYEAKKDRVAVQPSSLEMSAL

In the case of `COc1ccnc(CCc2nc3ccc(OC)nc3[nH]2)c1`, the IC50 was 0.38 µM in data set [1], 26.3 µM in data set [2] and 100 µM in [3].

As to `COc1ccnc(CSc2nc3ccccc3[nH]2)c1`, the figures for the IC50 in data set [1], in [2] and in data set [3] were 10.7 µM, 26.9 µM and 26.3 µM, respectively.

For `COc1ccnc(CCc2nc3c(OCCc4ccccc4)ccnc3[nH]2)c1`, the results for the IC50 in data set [1], in [2] and in data set [3] were 0.724 µM, 13.8 µM and 66.1 µM, respectively.

In the case of `COc1ccnc(CCc2nc3c(C)ccnc3[nH]2)c1`, the IC50 was 0.145 µM in data set [1], 18.6 µM in data set [2] and 45.7 µM in data set [3].

For the compound `COc1ccnc(CCc2nc3c(OC)ccnc3[nH]2)c1`, the IC50 was 0.776 µM in data set [1], 58.9 µM in data set [2] and 204 µM in [3].

`COc1ccnc(CCc2nc3cc(Br)cnc3[nH]2)c1`: the IC50 in data set [1] is 0.186 µM; in data set [2], 8.32 µM; in data set [3], 87.1 µM.

On to `COc1ccnc(CCc2nc3c(C)cc(C)nc3[nH]2)c1`, for which the half-maximal inhibitory concentration (IC50) is 2.29 µM in [1], 12.6 µM in data set [2] and above 100 µM in data set [3].

On to `COc1cnc(CSC)cc1OC`, for which the IC50 in [1], in data set [2] and in data set [3] was above 100 µM throughout.

Take `COCCOc1ccnc2[nH]c(CCc3cc(OC)ccn3)nc12`: the IC50 in data set [1] is 0.513 µM; in [2], 123 µM; in data set [3] it was 204 µM.

Consider `C[C@H]1CC(=N)N[C@@H]2[C@H](Cl)[C@@H]21`, for which the inhibition constant (Ki) in [1] is 0.00186 µM; in data set [3], 0.0186 µM.

In data set [4], `COc1ccnc(CCc2nc3cccnc3[nH]2)c1` had a pIC50 below 4. Besides, the result in data set [5] was Active.

With `CCCCc1cnc2[nH]c(CCc3cc(OC)ccn3)nc2c1`, the IC50 is 0.055 µM in data set [1], 1.91 µM in data set [2] and 87.1 µM in [3].

Regarding `COc1ccnc(CSC)c1`, the IC50 in [1] is 0.155 µM; in data set [2], 0.447 µM; in data set [3] it was 1.07 µM.

As for `COc1ccnc(CCc2nc3cc(-c4ccccc4)cnc3[nH]2)c1`, the IC50 is 1.2 µM in data set [2] and 18.2 µM in data set [3].

Take `COc1ccnc(CSc2nc3cccnc3[nH]2)c1`: the IC50 in data set [1] is 0.115 µM; in [2] it was 3.39 µM; in [3], 53.7 µM.

Compound `COc1ccnc(CCc2nc3ncccc3[nH]2)c1` gave a clearance in data set [6] of 36.8 mL/min/kg. In data set [7], this compound came in with a Cmax of 2240 ng/mL. The IC50 in [8] was 3.16 µM; in [2], 13.8 µM; in [3], 112 µM. In data set [9], this compound had a bioavailability of 48%.

As to `CC(=N)NCCCC[C@H](N)C(=O)O` [L-NIL], the IC50 was 4.68 µM in [1] and above 100 µM in data set [3].

Take `CC(=N)NCCCC[C@H](N)C(=O)Nc1nnn[nH]1`: the 50% inhibitory concentration (IC50) in [1], in [2] and in data set [3] was above 100 µM throughout.

`COc1ccnc(NC2CCN(C(=O)c3ccc(C#N)nc3)CC2)c1`: the IC50 was 0.0708 µM in [1], 6.61 µM in data set [2] and above 100 µM in data set [3].

As to `COc1ccnc(CSC)c1OC`, the IC50 in [1], in data set [2] and in data set [3] was above 100 µM throughout.

Regarding `COc1ccnc(CSc2nc3ccncc3[nH]2)c1`, the figures for the IC50 in data set [1], in data set [2] and in data set [3] were 49 µM, above 100 µM and above 100 µM, respectively.

Usually IC50 stands for the concentration that inhibits the measured activity by half. What is called Ki is a dissociation constant, usually derived from enzyme kinetics or from competition with a known ligand. By pIC50 is commonly meant the negative decadic logarithm of the IC50, by convention in mol/L. As a reminder, the clearance is a measure of how efficiently the substance is removed, as volume per time. A word on the Cmax: it is the highest concentration seen after dosing. The term bioavailability denotes the share of a dose that reaches the circulation, judged against a reference dose that is usually intravenous.

Source of the values: ChEMBL document CHEMBL1799930, “Novel nanomolar imidazo[4,5-b]pyridines as selective nitric oxide synthase (iNOS) inhibitors: SAR and structural insights” (Bioorg Med Chem Lett, 2011).
